Tests used:
[1] = tested on: CTGF; assay: DSS intestinal fibrosis study: Western blot of colon, CTGF; format: in vivo, mice; settings: whole colon, OD normalized with GAPDH, expressed as percentage of control groups; DSS 115.1 ± 16.88; listed as GED
Procedure: (§1) For the Western blot analysis, 0.5 cm of frozen colonic samples were homogenized in RIPA Buffer containing 50 mM Tris HCl pH 7.6, 150 mM NaCl, 1.5 mM MgCl2, 5 mM EDTA, 1% Triton-X and 10% Glycerol, supplemented with 100 mM Sodium Fluoride (NaF), 2 mM Sodium Orthovanadate (Na3VO4), 10 mM Sodium Pyrophosphate (NaPPi), 1 mM phenylmethanesulphone (PMSF) and a classical protease-inhibitor cocktail containing 10 μg/mL Leupeptin and Aprotinin.
(§2) For each sample, 30 μg of protein was separated by PAGE and electroblotted. Nitrocellulose membranes (100% pure) were incubated (according with a specific protocol for each antibody) with primary antibodies directed against CTGF, Collagen-I and GAPDH (purchased from Abcam, Cambridge, UK; 1:1000 for 2 h at RT), diluted in 5% non-fat milk in 0.1% TBS-t. […] Optical density of target bands was determined using a computer-assisted densitometer and the ImageJ public domain software (W. S., Rasband, ImageJ, U. S. National Institutes of Health, Bethesda, MD; http://rsb.info.nih.gov/ij/, 1997-2011). Tissue levels were expressed as units of Optical Density (OD) per quantity of total proteins, normalized with internal control GAPDH and the results were expressed as percentage of control groups.

[2] = tested on: C57bl6 mice; assay: DSS intestinal fibrosis study: inflammation level by histology (May-Grunwald-Giemsa); format: in vivo; settings: colon, MGG staining; DSS vehicle 3.77±0.80, control 0.50±0.33
Procedure: Rings of the transverse part of the colon were sampled (post mortem) and fixed in 4% formaldehyde and embedded in paraffin for histological analysis. Sections (4 μm) were stained with May-Grunwald-Giemsa and a multiparametric histological scoring (0 to 18) was performed blindly by two investigators. This staining allowed the quantification of inflammation. Histological grades, reflecting the inflammation level, were assigned based on the intensity of cellular infiltrate in the mucosa, its extension in sub-mucosa layers and the presence of epithelial lesions (see Table 5).

[3] = tested on: IL-13; assay: DSS intestinal fibrosis study: Western blot of colon, IL-13; format: in vivo, mice; settings: whole colon, OD normalized with GAPDH, expressed as percentage of control groups; DSS 189.5 ± 28.71; listed as GED
Procedure: as §1, §2

[4] = tested on: Male C57bl6 mice; assay: CCl4-induced liver fibrosis: histology (Metavir score); format: in vivo
Procedure: Liver fibrosis was induced in Male C57bl6 mice (Charles River, l'Arbresle, France) by injection of carbon tetrachloride (CCl4). The C57bl6 mice weighed 22-25 g and were maintained in laboratory conditions for 1 week before experiment. Animals were housed 5 per cage with food and water available ad libitum.
The effectiveness of compound 34 (specific ligand of PPARg) as compared to JWH-133 (anti-fibrogenic agent) was evaluated. Compound 34 was administered orally in combination with CCl4 injections for ca. 5 weeks. Compound 34 was dosed daily at 200 uL of a 30 mM solution. JWH-133 was administered daily via intraperitoneal injections at 3 mg/kg (dose volume=100 uL). The model of liver fibrosis is induced by chronic exposure to increased dosages of CCl4 for 5 weeks. The first week, mice received an intraperitoneal injection of CCl4, resuspended in olive oil, at the dosage of 80 μl/kg of mice body weight twice a week. At week 2, 3 injections of CCl4 at the dosage of 160 μl/kg were performed every two days. At week 3, 3 injections of CCl4 at the dosage of 240 μl/kg were performed every two days. At week 4, 3 injections of CCl4 at the dosage of 320 μl/kg were performed every two days. Mice were euthanized, at week 5, 3 days after the last CCl4 administration.
The formalin-fixed liver tissue was processed and 5 μm thick paraffin sections were stained with hematoxylin and eosin (H&E) and Picrosirius red staining (specific coloration for collagen in tissue sections) to evaluate the degree of fibrosis in the liver. Each section was analyzed blindly by 3 different experimenters for the quantification of the degree of fibrosis for each lobe of the liver (5) using the Metavir score (see FIG. 2A for Metavir Score chart). The photographs seen in FIG. 2B were obtained with a 20× objective.

[5] = tested on: TGF-β1; assay: DSS intestinal fibrosis study: Western blot of colon, TGF-β1; format: in vivo, mice; settings: whole colon, OD normalized with GAPDH, expressed as percentage of control groups; DSS 153.6 ± 26.25
Procedure: as §1, §2

[6] = tested on: Collagen I; assay: DSS intestinal fibrosis study: Western blot of colon, Collagen I; format: in vivo, mice; settings: whole colon, OD normalized with GAPDH, expressed as percentage of control groups; DSS 284.4 ± 63.86; listed as GED
Procedure: as §1, §2

[7] = tested on: Collagen-1; assay: Liver gene expression by quantitative Real Time PCR: collagen-1; format: in vivo, mice; settings: liver mRNA, normalized to β-actin, CCl4 group 138.12 ± 34.68
Procedure: The effect of administration of compound 34 (GED) and the specific CB2 agonist (JWH-133) was evaluated on the level of gene expression of cytokines (IL-1β, TNF-α) and genes involved in the mechanism of fibrosis by quantitative Real Time PCR.
Total RNA was isolated from livers using Rneasy kit (Macherey Nagel, Hoerdt, France) according to the manufacturer's instructions. RNA quantification was performed using spectrophotometry. After treatment at 37° C. for 30 min with 20-50 units of RNase-free DNase I (Roche Diagnostics Corporation, Indianapolis, IN, USA), oligo-dT primers (Roche Diagnostics Corporation, Indianapolis, USA) were used to synthesize single-stranded cDNA. mRNAs were quantified using SYBR green Master Mix (Applera, Courtaboeuf, France) with murine specific oligonucleotides (see Table 2) in a GeneAmp Abiprism 7000 (Applera, Courtaboeuf, France). In each assay, calibrated and no-template controls were included. Each sample was run in triplicate. SYBR green dye intensity was analyzed using the Abiprism 7000 SDS software (Applera, Courtaboeuf, France). All results were normalized to the unaffected housekeeping gene β-actin.

COC(Cc1ccc(N)cc1)C(=O)O (racemic) [Compound 34, (±)-2-methoxy-3-(4′-aminophenyl) propionic acid]
CTGF (Western blot) [1]: 55.75±17.53
inflammation level, histological score (0 to 18) [2]: 2.18±0.48
IL-13 (Western blot) [3]: 88.88±14.01
decrease of the fibrotic score (adapted Metavir score) compared to untreated animals ([4]; FIG. 3B): 12.5%
mean Metavir score (FIG. 3A) ([4]; compound 34 30 mM 200 uL oral daily, JWH-133 3 mg/kg i.p. daily, CCl4 vehicle group 2.5±0.5): 2.1±0.2
degree of fibrosis (Metavir) ([4]; result in words): decrease in the degree of fibrosis from severe to moderate fibrosis
TGF-β1 (Western blot) [5]: 130.5 ± 28.02
Collagen I (Western blot) [6]: 90.75±19.91
Collagen-1 [7]: 75.15 ± 5.23, p = 0.03
Collagen-1 ([7]; listed as compound 34): 42.81±14.81

Reference: patent US12291494B2, “Methods of treating fibrosis” (Nogra Pharma Limited, priority 2012, dated 2025)
